From PubChem BioAssay (NCI)
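Protocol summary: plate cells (96-well), add compound at 5 concentrations, incubate 48 h, interpolate endpoints linearly. Definition used: TGI = concentration required for complete inhibition of growth.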

Columns and labels:
Assay in all cases: NCI tumour cell line growth inhibition, 48 h
MDA-MB-231 breast = tested on: MDA-MB-231 breast
HOP-92 NSCLC = tested on: HOP-92 NSCLC
OVCAR-3 ovarian = tested on: OVCAR-3 ovarian
EKVX NSCLC = tested on: EKVX NSCLC
HCT-116 colon = tested on: HCT-116 colon
TK-10 renal = tested on: TK-10 renal
NCI-H460 lung = tested on: NCI-H460 lung
K-562 leukemia = tested on: K-562 leukemia
IGROV1 ovarian = tested on: IGROV1 ovarian
NCI/ADR-RES ovarian = tested on: NCI/ADR-RES ovarian
MDA-MB-435 = tested on: MDA-MB-435
MCF7 breast = tested on: MCF7 breast
SK-MEL-2 melanoma = tested on: SK-MEL-2 melanoma
HCT-15 colon = tested on: HCT-15 colon
SF-539 CNS = tested on: SF-539 CNS
KM12 colon = tested on: KM12 colon
HS 578T breast = tested on: HS 578T breast
786-0 renal = tested on: 786-0 renal
U251 CNS = tested on: U251 CNS
SK-OV-3 ovarian = tested on: SK-OV-3 ovarian
MDA-N = tested on: MDA-N
NCI-H226 lung = tested on: NCI-H226 lung
HT29 colon = tested on: HT29 colon
DU-145 prostate = tested on: DU-145 prostate
SK-MEL-5 melanoma = tested on: SK-MEL-5 melanoma
OVCAR-5 ovarian = tested on: OVCAR-5 ovarian
M14 melanoma = tested on: M14 melanoma
LOX IMVI melanoma = tested on: LOX IMVI melanoma
OVCAR-4 ovarian = tested on: OVCAR-4 ovarian
COLO 205 colon = tested on: COLO 205 colon
BT-549 breast = tested on: BT-549 breast
A549 NSCLC = tested on: A549 NSCLC
RPMI-8226 leukemia = tested on: RPMI-8226 leukemia
A498 renal = tested on: A498 renal
HOP-62 NSCLC = tested on: HOP-62 NSCLC
MOLT-4 leukemia = tested on: MOLT-4 leukemia
T-47D breast = tested on: T-47D breast
CCRF-CEM leukemia = tested on: CCRF-CEM leukemia
NCI-H23 lung = tested on: NCI-H23 lung
UACC-257 melanoma = tested on: UACC-257 melanoma
OVCAR-8 ovarian = tested on: OVCAR-8 ovarian
SNB-75 CNS = tested on: SNB-75 CNS
SK-MEL-28 melanoma = tested on: SK-MEL-28 melanoma
ACHN renal = tested on: ACHN renal
RXF 393 renal = tested on: RXF 393 renal
SNB-19 CNS = tested on: SNB-19 CNS
PC-3 prostate = tested on: PC-3 prostate
MALME-3M melanoma = tested on: MALME-3M melanoma
UACC-62 melanoma = tested on: UACC-62 melanoma
SF-268 CNS = tested on: SF-268 CNS
NCI-H522 lung = tested on: NCI-H522 lung
SW-620 colon = tested on: SW-620 colon
HL-60(TB) leukemia = tested on: HL-60(TB) leukemia
CAKI-1 renal = tested on: CAKI-1 renal
SN12C renal = tested on: SN12C renal
SR leukemia = tested on: SR leukemia
SF-295 CNS = tested on: SF-295 CNS
UO-31 renal = tested on: UO-31 renal

Measured: TGI

NC1(P(=O)(O)O)CCCCC1
not listed: UO-31 renal
> 100 µM: all other assays above

Cc1ncc([N+](=O)[O-])n1CCNC(=O)CCC(=O)NCCCn1ccnc1[N+](=O)[O-]
not listed: SNB-19 CNS
> 100 µM: all other assays above
